In this assay the test system is plasma calcium concentration. In words: Evaluation of physiological activity of PEGylated salmon calcitonin (blood calcium concentration). Format: in vivo, mouse. Details: dose or concentration left out as unconfirmed. The conditions noted are these: Balb/c mice, sCT dose, plasma at 1, 6, 24 hr, compared to PBS group, FIG. 16. As for the experimental part: The method for evaluating the physiological activity of a degradable polyethylene glycol derivative-bonded bio-related substance is not particular limited. For example, when the bio-related substance is insulin, blood sugar concentration is measured, and when it is calcitonin, blood calcium concentration is measured, by periodically collecting blood from the animal that received administration and measuring the substance in the blood by using an appropriate analytical instrument, and the like, based on which the evaluation can be performed. Specifically, in the case of insulin, a glucose measurement kit is used to monitor a decrease in glucose concentration after administration and, in the case of calcitonin, a decrease in calcium concentration after administration is monitored using a calcium measurement kit, based on which the evaluation can be performed.
The physiological activities of 4 groups of sCT-E(FG-200ME)2 which is SCT to which degradable polyethylene glycol derivative with a molecular weight of 40,000 is bonded and methoxy PEG 40 kDa-sCT, in which non-degradable methoxy PEG 40 kDa is bonded, each of which is obtained in Example 9, unmodified sCT, and PBS were comparatively evaluated in animal experiments. […]

Bridge positions count the residues as written; N and C are the ends. Ends that are not written are not given here.

Here are results for one substance from patent publication US12390534B2, “Branched degradable polyethylene glycol binder” (NOF CORPORATION, priority 2019, dated 2025).

As for “Unmodified sCT: salmon calcitonin (sCT) with the amino acid sequence CSNLSTCVLGKLSQELHKLQTYPRTNTGSGTP (SEQ ID NO: 1) (CSNLSTCVLGKLSQELHKLQTYPRTNTGSGTP-NH2; disulfide 1-7; ends not checked; listed as Oncorhynchus keta)”, the “plasma calcium concentration after administration (in words)” value was “showed an increase in calcium concentration from 6 hr after administration”.
